Assay results published in patent publication US20240246942A1, “KINASE INHIBITORS FOR THE TREATMENT OF NEURODEGENERATIVE DISEASES” (priority 2020, published 2024).

Columns and labels:
Assay in all cases: biochemical
[1] = target: T1, panel of 374 wild-type kinases (Homo sapiens, UniProt Q9Y3S1); settings: read-out: % Enzyme Activity (relative to DMSO controls), kinase WNK2
T1 construct: purchased Reaction Biology Corporation

[2] = target: T2, panel of 374 wild-type kinases (Homo sapiens, UniProt Q99683); settings: read-out: % Enzyme Activity (relative to DMSO controls), ASK1/MAP3K5
T2 construct: purchased Reaction Biology Corporation
T2 sequence (Q99683 1-1374): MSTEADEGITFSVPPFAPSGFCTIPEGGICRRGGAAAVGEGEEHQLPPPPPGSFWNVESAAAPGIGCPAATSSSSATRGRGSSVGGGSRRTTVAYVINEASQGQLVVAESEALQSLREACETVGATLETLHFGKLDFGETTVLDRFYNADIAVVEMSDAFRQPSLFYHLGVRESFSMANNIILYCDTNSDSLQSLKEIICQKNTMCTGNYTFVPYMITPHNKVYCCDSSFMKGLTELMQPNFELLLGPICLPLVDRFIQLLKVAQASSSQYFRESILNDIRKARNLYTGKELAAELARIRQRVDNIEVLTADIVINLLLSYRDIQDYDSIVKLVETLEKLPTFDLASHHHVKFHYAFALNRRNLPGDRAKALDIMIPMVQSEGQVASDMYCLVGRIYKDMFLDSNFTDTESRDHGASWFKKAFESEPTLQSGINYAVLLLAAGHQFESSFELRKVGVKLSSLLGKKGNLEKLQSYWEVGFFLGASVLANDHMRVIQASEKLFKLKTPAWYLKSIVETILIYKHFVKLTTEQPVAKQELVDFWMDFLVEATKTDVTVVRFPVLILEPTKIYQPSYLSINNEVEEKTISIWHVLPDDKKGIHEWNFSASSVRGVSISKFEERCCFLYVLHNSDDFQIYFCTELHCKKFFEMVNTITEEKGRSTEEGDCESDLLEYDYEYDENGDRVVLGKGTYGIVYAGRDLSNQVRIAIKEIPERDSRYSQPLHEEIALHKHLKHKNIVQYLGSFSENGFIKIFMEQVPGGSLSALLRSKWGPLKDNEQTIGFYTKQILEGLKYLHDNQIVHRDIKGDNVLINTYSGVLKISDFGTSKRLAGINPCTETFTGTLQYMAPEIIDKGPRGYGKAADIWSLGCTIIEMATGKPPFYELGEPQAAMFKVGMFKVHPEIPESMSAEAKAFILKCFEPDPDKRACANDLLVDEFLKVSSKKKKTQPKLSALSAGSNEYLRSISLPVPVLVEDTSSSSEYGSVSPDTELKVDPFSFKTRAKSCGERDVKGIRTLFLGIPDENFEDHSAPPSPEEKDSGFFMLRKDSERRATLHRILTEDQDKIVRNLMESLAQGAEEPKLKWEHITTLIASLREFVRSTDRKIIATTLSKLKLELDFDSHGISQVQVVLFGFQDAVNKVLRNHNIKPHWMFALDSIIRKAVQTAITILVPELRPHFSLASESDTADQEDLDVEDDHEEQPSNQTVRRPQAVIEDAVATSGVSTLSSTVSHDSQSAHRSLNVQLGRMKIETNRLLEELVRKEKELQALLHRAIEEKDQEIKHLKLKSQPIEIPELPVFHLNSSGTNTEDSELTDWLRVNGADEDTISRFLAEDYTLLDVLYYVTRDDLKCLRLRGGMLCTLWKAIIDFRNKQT

[3] = target: T3, panel of 374 wild-type kinases (Homo sapiens, UniProt Q8IW41); settings: read-out: % Enzyme Activity (relative to DMSO controls), MAPKAPK5/PRAK
T3 construct: purchased Reaction Biology Corporation
T3 sequence (Q8IW41 1-473): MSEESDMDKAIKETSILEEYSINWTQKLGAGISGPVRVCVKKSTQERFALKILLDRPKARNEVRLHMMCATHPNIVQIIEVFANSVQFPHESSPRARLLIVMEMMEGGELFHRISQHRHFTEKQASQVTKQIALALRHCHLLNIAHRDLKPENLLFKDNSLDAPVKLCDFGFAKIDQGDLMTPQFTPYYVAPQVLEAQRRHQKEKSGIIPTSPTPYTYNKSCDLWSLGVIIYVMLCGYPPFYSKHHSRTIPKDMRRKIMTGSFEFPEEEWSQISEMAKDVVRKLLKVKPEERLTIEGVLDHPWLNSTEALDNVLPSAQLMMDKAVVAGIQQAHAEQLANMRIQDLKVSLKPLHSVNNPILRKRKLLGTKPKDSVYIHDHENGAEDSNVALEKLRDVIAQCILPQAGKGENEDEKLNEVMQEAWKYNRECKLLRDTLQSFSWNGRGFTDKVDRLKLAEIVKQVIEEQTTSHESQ

[4] = target: T4, panel of 374 wild-type kinases (Homo sapiens, UniProt Q14289); settings: read-out: % Enzyme Activity (relative to DMSO controls), kinase PYK2
T4 construct: purchased Reaction Biology Corporation
T4 sequence (Q14289 whole entry): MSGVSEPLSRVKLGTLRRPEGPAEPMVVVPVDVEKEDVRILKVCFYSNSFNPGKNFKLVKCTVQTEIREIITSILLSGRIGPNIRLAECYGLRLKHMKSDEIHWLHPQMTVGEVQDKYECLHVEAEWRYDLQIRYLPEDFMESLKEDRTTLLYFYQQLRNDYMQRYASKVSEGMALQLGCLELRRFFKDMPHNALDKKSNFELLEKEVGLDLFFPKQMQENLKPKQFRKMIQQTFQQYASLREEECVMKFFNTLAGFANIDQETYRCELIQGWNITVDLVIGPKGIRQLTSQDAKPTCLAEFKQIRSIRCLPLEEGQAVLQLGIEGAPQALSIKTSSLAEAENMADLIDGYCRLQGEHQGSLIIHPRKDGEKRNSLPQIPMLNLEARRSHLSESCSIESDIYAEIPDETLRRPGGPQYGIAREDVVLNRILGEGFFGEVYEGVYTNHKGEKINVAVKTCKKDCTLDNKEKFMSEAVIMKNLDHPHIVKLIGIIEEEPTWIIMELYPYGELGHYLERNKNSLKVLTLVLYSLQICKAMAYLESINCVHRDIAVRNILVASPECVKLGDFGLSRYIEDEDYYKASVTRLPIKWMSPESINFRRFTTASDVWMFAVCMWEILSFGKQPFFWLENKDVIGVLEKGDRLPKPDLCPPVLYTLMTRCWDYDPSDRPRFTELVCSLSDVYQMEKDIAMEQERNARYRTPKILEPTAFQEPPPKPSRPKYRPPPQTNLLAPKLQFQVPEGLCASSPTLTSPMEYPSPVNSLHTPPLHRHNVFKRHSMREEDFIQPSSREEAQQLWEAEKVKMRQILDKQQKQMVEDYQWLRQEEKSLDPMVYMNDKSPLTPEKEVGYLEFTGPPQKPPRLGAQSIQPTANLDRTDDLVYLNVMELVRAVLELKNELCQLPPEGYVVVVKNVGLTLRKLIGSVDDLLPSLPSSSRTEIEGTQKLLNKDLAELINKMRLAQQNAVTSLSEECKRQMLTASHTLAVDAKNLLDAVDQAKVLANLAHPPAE

[5] = target: T5, panel of 374 wild-type kinases (Homo sapiens, UniProt Q9P286); settings: read-out: % Enzyme Activity (relative to DMSO controls), kinase PAK5
T5 construct: purchased Reaction Biology Corporation
T5 sequence (Q9P286 whole entry): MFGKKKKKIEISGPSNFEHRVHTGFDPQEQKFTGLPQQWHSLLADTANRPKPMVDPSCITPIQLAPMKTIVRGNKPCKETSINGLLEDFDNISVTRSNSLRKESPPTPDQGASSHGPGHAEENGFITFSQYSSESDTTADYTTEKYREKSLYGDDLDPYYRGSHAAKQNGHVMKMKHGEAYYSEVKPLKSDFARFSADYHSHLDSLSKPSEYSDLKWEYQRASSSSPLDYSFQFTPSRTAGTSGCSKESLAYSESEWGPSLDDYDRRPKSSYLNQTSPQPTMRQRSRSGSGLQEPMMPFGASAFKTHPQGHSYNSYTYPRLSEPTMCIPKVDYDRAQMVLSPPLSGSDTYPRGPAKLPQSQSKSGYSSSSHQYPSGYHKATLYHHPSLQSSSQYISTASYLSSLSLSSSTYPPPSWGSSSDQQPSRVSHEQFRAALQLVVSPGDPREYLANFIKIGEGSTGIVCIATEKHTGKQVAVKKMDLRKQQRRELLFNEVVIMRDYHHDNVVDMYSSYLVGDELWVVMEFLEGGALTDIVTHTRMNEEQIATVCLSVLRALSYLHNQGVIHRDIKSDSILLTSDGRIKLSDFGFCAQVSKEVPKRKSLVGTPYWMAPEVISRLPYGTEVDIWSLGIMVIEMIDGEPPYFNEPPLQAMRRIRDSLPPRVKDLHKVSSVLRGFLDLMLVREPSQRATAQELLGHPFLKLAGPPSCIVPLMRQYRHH

[6] = target: T6, panel of 374 wild-type kinases (Homo sapiens, UniProt P54764); settings: read-out: % Enzyme Activity (relative to DMSO controls), EPHA4
T6 construct: purchased Reaction Biology Corporation
T6 sequence (P54764 20-986): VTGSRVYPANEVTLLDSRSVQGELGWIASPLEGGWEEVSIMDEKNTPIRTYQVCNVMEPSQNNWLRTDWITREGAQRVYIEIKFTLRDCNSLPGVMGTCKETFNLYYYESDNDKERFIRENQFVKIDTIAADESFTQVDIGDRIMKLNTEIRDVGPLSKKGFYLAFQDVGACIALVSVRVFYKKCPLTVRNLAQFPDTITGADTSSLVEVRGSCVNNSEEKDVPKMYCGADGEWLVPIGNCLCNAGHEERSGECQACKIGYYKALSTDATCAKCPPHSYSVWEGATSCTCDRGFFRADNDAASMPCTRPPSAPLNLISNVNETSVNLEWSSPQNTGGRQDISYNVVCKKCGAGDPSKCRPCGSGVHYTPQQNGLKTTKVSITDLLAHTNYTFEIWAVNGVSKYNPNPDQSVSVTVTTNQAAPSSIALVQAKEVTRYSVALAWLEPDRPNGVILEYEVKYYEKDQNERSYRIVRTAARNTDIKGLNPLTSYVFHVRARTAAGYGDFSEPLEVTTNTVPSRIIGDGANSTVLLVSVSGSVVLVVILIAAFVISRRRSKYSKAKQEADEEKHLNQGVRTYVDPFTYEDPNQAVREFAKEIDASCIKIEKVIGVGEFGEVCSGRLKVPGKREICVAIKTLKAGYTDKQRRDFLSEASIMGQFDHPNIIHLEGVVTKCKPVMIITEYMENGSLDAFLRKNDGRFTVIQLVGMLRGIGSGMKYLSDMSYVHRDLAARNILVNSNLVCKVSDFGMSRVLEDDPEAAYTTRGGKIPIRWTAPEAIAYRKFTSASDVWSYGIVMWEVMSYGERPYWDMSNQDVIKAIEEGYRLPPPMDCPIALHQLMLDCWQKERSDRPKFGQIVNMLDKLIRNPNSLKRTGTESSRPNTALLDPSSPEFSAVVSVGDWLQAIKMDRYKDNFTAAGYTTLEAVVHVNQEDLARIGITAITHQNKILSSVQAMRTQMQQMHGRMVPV

[7] = target: T7, panel of 374 wild-type kinases (Homo sapiens, UniProt Q9UIK4); settings: read-out: % Enzyme Activity (relative to DMSO controls), DAPK2
T7 construct: purchased Reaction Biology Corporation
T7 sequence (Q9UIK4 whole entry): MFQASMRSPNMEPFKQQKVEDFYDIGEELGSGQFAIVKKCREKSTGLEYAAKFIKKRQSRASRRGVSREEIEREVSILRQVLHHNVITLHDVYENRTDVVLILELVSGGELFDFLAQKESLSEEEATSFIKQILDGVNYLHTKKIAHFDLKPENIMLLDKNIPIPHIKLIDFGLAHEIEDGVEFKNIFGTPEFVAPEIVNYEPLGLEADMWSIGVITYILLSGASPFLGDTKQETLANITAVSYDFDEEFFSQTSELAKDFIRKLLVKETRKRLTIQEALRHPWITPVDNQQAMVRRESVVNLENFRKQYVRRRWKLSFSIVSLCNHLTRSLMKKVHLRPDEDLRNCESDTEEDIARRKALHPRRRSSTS

| SMILES | remaining activity at 5 µM [1] | remaining activity at 5 µM [2] | remaining activity at 5 µM [3] | remaining activity at 5 µM [4] | remaining activity at 5 µM [5] | remaining activity at 5 µM [6] | remaining activity at 5 µM [7] | remaining activity at 10 µM ([1]; 10 uM) | remaining activity at 10 µM ([2]; 10 uM) | remaining activity at 10 µM ([3]; 10 uM) | remaining activity at 10 µM ([4]; 10 uM) | remaining activity at 10 µM ([5]; 10 uM) | remaining activity at 10 µM ([6]; 10 uM) | remaining activity at 10 µM ([7]; 10 uM) |
| --- | --- | --- | --- | --- | --- | --- | --- | --- | --- | --- | --- | --- | --- | --- |
| O=C(Nc1cnn(-c2csc(C(=O)NC3COC3)c2)c1)Nc1ccccc1Cl [Compound 17, 4-(4-(3-(2-chlorophenyl)ureido)-1H-pyrazol-1-yl)-N-(oxetan-3-yl)thiophene-2-carboxamide] | 96.3% | 91.2% | 92.8% | 93.5% | 92.1% | 100% | 103% | – | – | – | – | – | – | – |
| O=C(Nc1cnn(-c2csc(C(=O)NC3COC3)c2)c1)Nc1c(F)cccc1Cl [Compound 25, 4-(4-(3-(2-chloro-6-fluorophenyl)ureido)-1H-pyrazol-1-yl)-N-(oxetan-3-yl)thiophene-2-carboxamide] | 91.9% | 91.1% | 99.7% | 91% | 92.9% | 89.1% | 102% | – | – | – | – | – | – | – |
| Cc1sc(C(=O)NC2COC2)cc1-n1cc(NC(=O)Nc2c(F)cccc2Cl)cn1 [Compound 27, 4-(4-(3-(2-chloro-6-fluorophenyl)ureido)-1H-pyrazol-1-yl)-5-methyl-N-(oxetan-3-yl)thiophene-2-carboxamide] | – | – | – | – | – | – | – | 91.1% | 94% | 96.5% | 104% | 103% | 116% | 99.5% |
